# According to US9663478B2, “Benzotriazine oxides as drugs targeting Mycobacterium tuberculosis” (priority 2011, dated 2017):
# Columns and labels:
# NRP Mtb H37Rv cells = experiment: Low-oxygen recovery assay (LORA) MIC; assay type: cell-based, Mycobacterium tuberculosis; settings: Mycobacterium tuberculosis, H37RV; NRP Mtb; Tables 1-4 and text; read-out: LORA MIC - ITR
# [1] = tested on: Mycobacterium smegmatis ATCC 10143; experiment: Spectrum of antimicrobial activity; assay type: cell-based
# [2] = tested on: Klebsiella pneumoniae ATCC 700721; experiment: Spectrum of antimicrobial activity; assay type: cell-based
# [3] = tested on: Klebsiella pneumoniae ATCC 43816; experiment: Spectrum of antimicrobial activity; assay type: cell-based
# [4] = tested on: Enterobacter aerogenes ATCC 29751; experiment: Spectrum of antimicrobial activity; assay type: cell-based
# Escherichia coli BAA 201 = experiment: Spectrum of antimicrobial activity; assay type: cell-based
# [5] = tested on: Enterococcus fecalis ATCC 51575; experiment: Spectrum of antimicrobial activity; assay type: cell-based
# [6] = tested on: Salmonella typhimurium -Hisg46 SRI Collection; experiment: Spectrum of antimicrobial activity; assay type: cell-based
# [7] = tested on: Salmonella choleraesuis ATCC 13311; experiment: Spectrum of antimicrobial activity; assay type: cell-based
# [8] = tested on: Moraxella catarrhalis ATCC 25238; experiment: Spectrum of antimicrobial activity; assay type: cell-based
# [9] = tested on: Salmonella typhimurium tester strain TA98; experiment: Salmonella/microsome plate incorporation assay (Ames screen), TA98; assay type: cell-based
# Source text: (§1) A liability in developing any bioreductively-activated antimicrobial drug is the potential for mutagenicity. Because the basis for activity of these compounds is the generation of intermediate radical species, undesirable mutagenicity poses a risk, as has been documented for many classes of bioreductive drugs, including the BTO tirapazamine (TPZ).^19,20 The most convenient methodology for assessing the potential to induce genetic damage is to use the plate incorporation method with Salmonella typhimurium strains TA98 and TA100, commonly known as the Ames assay. The Salmonella tester strains have mutations in the histidine operon, a mutation that leads to defective lipopolysaccharide (rfa), and a deletion that covers genes involved in the synthesis of biotin (bio) and in the repair of ultraviolet-induced DNA damage (uvrB).^21,22 These mutations make the strains more permeable to many molecules and increase their susceptibility to the mutagenic effects of these molecules. Given that the hypothesized mechanism of the BTO compounds is to selectively form cytotoxic radical species in bacteria over mammalian cells, a microbial mutagenicity assay is not ideal, but was used to benchmark their activities in this assay. […] Individual plate counts and their means and standard deviations, along with the condition of the background lawn, are presented in SI Table 2.
# (§2) Experimental compounds were screened for microbial mutagenicity activity using the plate incorporation method with Salmonella typhimurium tester strains TA98 and TA100, in the presence and absence of an Aroclor 1254-induced rat-liver metabolic activation system containing 10% S9 (MA). The presence of the appropriate genetic characteristics was verified for the strains used in this study. Stock solutions were made by dissolving each test sample in dimethyl sulfoxide (DMSO) at 5 mg/ml. These initial stock concentrations were then serially diluted to achieve dose formulations of 100, 50, 10, 5, 1, 0.5, and 0.1 μg/plate (dosing volume 100 μl). Test plates were compared with the control plates for their revertant count and for the condition of the background bacterial lawn. A test article was considered a mutagen when the mean number of revertant colonies on the test plates exceeds the mean solvent control counts by at least a two-fold margin. Dose relatedness was also taken into account when evaluating a mutagenic response. Cytotoxicity was estimated by several parameters: a substantial decrease in the number of revertant colonies on the test plates, clearing or absence of the background bacterial lawn growth, formation of pinpoint nonrevertant colonies, or complete absence of bacterial growth.
# [10] = tested on: Salmonella typhimurium tester strain TA100; experiment: Salmonella/microsome plate incorporation assay (Ames screen), TA100; assay type: cell-based
# Source text: as §1, §2
# [11] = Solubility, shake-flask method; assay type: physicochemical; settings: 0.9% saline solution at pH 7.4, triplicate
# Experimental: The solubility of these two compounds was measured in triplicate using the shake-flask method in a 0.9% saline solution at pH 7.4. Both 8a and 20q had acceptable solubilities of 1.35 mg/mL and 0.28 mg/mL, respectively.
# Compounds were ground into a fine powders using a mortar and pestle and added to a 25 mL glass Erlenmeyer flask with 5 mL of a 0.9% saline solution at pH 7.4. Approximately 20 mg of compound was added to each flask to ensure saturation. The flasks were then vigorously stirred using a magnetic stir bar at 25° C. for 48 hours. The samples were then filtered through a Whatman PVDF membrane (0.45 μm pore size) syringe filter. The concentration of compound in the supernatant was then measured using HPLC quantitation at the maximum absorption wavelength for each compound.
# Vero cells = experiment: Cytotoxicity against Vero cells (Cell Titer-Glo); settings: 72 h; Tables 1-4 and text
# [12] = TA98, with metabolic activation (10% S9), 0.1 μg per plate
# [13] = TA98, with metabolic activation (10% S9), 0.5 μg per plate
# [14] = TA98, with metabolic activation (10% S9), 1 μg per plate
# [15] = TA98, with metabolic activation (10% S9), 5 μg per plate
# [16] = TA98, with metabolic activation (10% S9), 10 μg per plate
# [17] = TA98, with metabolic activation (10% S9), 50 μg per plate
# [18] = TA98, with metabolic activation (10% S9), 100 μg per plate
# [19] = TA98, without metabolic activation, 0.1 μg per plate
# [20] = TA98, without metabolic activation, 0.5 μg per plate
# [21] = TA98, without metabolic activation, 1 μg per plate
# [22] = TA98, without metabolic activation, 5 μg per plate
# [23] = TA98, without metabolic activation, 10 μg per plate
# [24] = TA98, without metabolic activation, 50 μg per plate
# [25] = TA98, without metabolic activation, 100 μg per plate
# [26] = presence and absence of metabolic activation
# [27] = TA100, with metabolic activation (10% S9), 0.1 μg per plate
# [28] = TA100, with metabolic activation (10% S9), 0.5 μg per plate
# [29] = TA100, with metabolic activation (10% S9), 1 μg per plate
# [30] = TA100, with metabolic activation (10% S9), 5 μg per plate
# [31] = TA100, with metabolic activation (10% S9), 10 μg per plate
# [32] = TA100, with metabolic activation (10% S9), 50 μg per plate
# [33] = TA100, with metabolic activation (10% S9), 100 μg per plate
# [34] = TA100, without metabolic activation, 0.1 μg per plate
# [35] = TA100, without metabolic activation, 0.5 μg per plate
# [36] = TA100, without metabolic activation, 1 μg per plate
# [37] = TA100, without metabolic activation, 5 μg per plate
# [38] = TA100, without metabolic activation, 10 μg per plate
# [39] = TA100, without metabolic activation, 50 μg per plate
# [40] = TA100, without metabolic activation, 100 μg per plate
smiles,measurement,setting,value
"[O-][n+]1nc(N2CCCC2)[n+]([O-])c2cc3c(cc21)CCC3 [Compound 20q, 3-(pyrrolidin-1-yl)-7,8-dihydro-6H-indeno[5,6-e][1,2,4]triazine 1,4-dioxide]",MIC,NRP Mtb H37Rv cells,0.99 µg/mL
same,"Antimicrobial activity, Mycobacterium smegmatis",[1],2.5 µg/mL
same,"Antimicrobial activity, Klebsiella pneumoniae",[2],>32 µg/mL
same,"Antimicrobial activity, Klebsiella pneumoniae",[3],>32 µg/mL
same,"Antimicrobial activity, Enterobacter aerogenes",[4],>32 µg/mL
same,"Antimicrobial activity, Escherichia coli",Escherichia coli BAA 201,>32 µg/mL
same,"Antimicrobial activity, Enterococcus fecalis",[5],>32 µg/mL
same,"Antimicrobial activity, Salmonella typhimurium -Hisg46",[6],>32 µg/mL
same,"Antimicrobial activity, Salmonella choleraesuis",[7],>32 µg/mL
same,"Antimicrobial activity, Moraxella catarrhalis",[8],10 µg/mL
same,Mean revertants per plate,[9]; [12],39.5
same,Ratio treated/solvent,[9]; [12],1.4
same,Mean revertants per plate,[9]; [13],30.0
same,Ratio treated/solvent,[9]; [13],1.1
same,Mean revertants per plate,[9]; [14],47.5
same,Ratio treated/solvent,[9]; [14],1.7
same,Mean revertants per plate,[9]; [15],124.0
same,Ratio treated/solvent,[9]; [15],4.5
same,Mean revertants per plate,[9]; [16],266.5
same,Ratio treated/solvent,[9]; [16],9.8
same,Mean revertants per plate,[9]; [17],988.0
same,Ratio treated/solvent,[9]; [17],36.1
same,Mean revertants per plate,[9]; [18],1566.0
same,Ratio treated/solvent,[9]; [18],57.3
same,Mean revertants per plate,[9]; [19],33.0
same,Ratio treated/solvent,[9]; [19],1.0
same,Mean revertants per plate,[9]; [20],50.5
same,Ratio treated/solvent,[9]; [20],1.6
same,Mean revertants per plate,[9]; [21],85.0
same,Ratio treated/solvent,[9]; [21],2.7
same,Mean revertants per plate,[9]; [22],241.0
same,Ratio treated/solvent,[9]; [22],7.5
same,Mean revertants per plate,[9]; [23],378.5
same,Ratio treated/solvent,[9]; [23],11.8
same,Mean revertants per plate,[9]; [24],797.0
same,Ratio treated/solvent,[9]; [24],24.9
same,Mean revertants per plate,[9]; [25],1133.0
same,Ratio treated/solvent,[9]; [25],35.4
same,"number of revertant colonies, TA98",[9]; [26],dose-related increases in the number of revertant colonies
same,Mean revertants per plate,[10]; [27],171.5
same,Ratio treated/solvent,[10]; [27],1.1
same,Mean revertants per plate,[10]; [28],204.0
same,Ratio treated/solvent,[10]; [28],1.3
same,Mean revertants per plate,[10]; [29],180.5
same,Ratio treated/solvent,[10]; [29],1.1
same,Mean revertants per plate,[10]; [30],267.0
same,Ratio treated/solvent,[10]; [30],1.7
same,Mean revertants per plate,[10]; [31],291.5
same,Ratio treated/solvent,[10]; [31],1.8
same,Mean revertants per plate,[10]; [32],700.5
same,Ratio treated/solvent,[10]; [32],4.4
same,Mean revertants per plate,[10]; [33],916.0
same,Ratio treated/solvent,[10]; [33],5.8
same,Mean revertants per plate,[10]; [34],173.0
same,Ratio treated/solvent,[10]; [34],1.2
same,Mean revertants per plate,[10]; [35],155.0
same,Ratio treated/solvent,[10]; [35],1.0
same,Mean revertants per plate,[10]; [36],206.0
same,Ratio treated/solvent,[10]; [36],1.4
same,Mean revertants per plate,[10]; [37],303.0
same,Ratio treated/solvent,[10]; [37],2.0
same,Mean revertants per plate,[10]; [38],392.0
same,Ratio treated/solvent,[10]; [38],2.6
same,Mean revertants per plate,[10]; [39],1033.5
same,Ratio treated/solvent,[10]; [39],7.0
same,Mean revertants per plate,[10]; [40],1468.0
same,Ratio treated/solvent,[10]; [40],9.9
same,"number of revertant colonies, TA100",[10]; [26],dose-related increases in the number of revertant colonies
same,solubility,[11],280 µg/mL
same,Vero Tox CC50,Vero cells,25 µg/mL
